Assays:
Experiment in all cases: relative viability (nuclei count vs DMSO), 5 days (fraction); higher = more cells survive
[1] = compound: COc1cc2nccc(Oc3ccc(NC(=O)C4(C(=O)Nc5ccc(F)cc5)CC4)cc3)c2cc1OC [Cabozantinib] + C[C@]1(O)C[C@@H](c2nc(-c3ccc4ccc(-c5ccccc5)nc4c3)c3c(N)nccn32)C1 [Linsitinib] (partner 1 µM)
Outline: (§1)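 Lung cancer cell lines in 1536-well plates were dosed by pin tool the day after seeding, either with one drug alone or with a fixed anchor-drug dose plus five library-drug doses (not always all listed) in √10 steps. After 5 days, cells were fixed and their nuclei stained in one step (final 0.05% Triton X-100, 1% formaldehyde, 1 ug/ml Hoechst), then counted on 4× images. Relative viability is the nuclei count in treated wells divided by that in vehicle wells. Values are medians of duplicate plates.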

Zosuquidar + OSI-027 = compound: O[C@@H](COc1cccc2ncccc12)CN1CCN([C@@H]2c3ccccc3[C@@H]3[C@H](c4ccccc42)C3(F)F)CC1 [Zosuquidar] + COc1cccc2cc(-c3nc([C@H]4CC[C@H](C(=O)O)CC4)n4ncnc(N)c34)[nH]c12 [OSI-027] (partner 0.5 µM)
Outline: as §1

Zosuquidar + Luminespib = compound: O[C@@H](COc1cccc2ncccc12)CN1CCN([C@@H]2c3ccccc3[C@@H]3[C@H](c4ccccc42)C3(F)F)CC1 [Zosuquidar] + CCNC(=O)c1noc(-c2cc(C(C)C)c(O)cc2O)c1-c1ccc(CN2CCOCC2)cc1 [Luminespib] (partner 0.01 µM)
Outline: as §1

Zosuquidar + Pemetrexed = compound: O[C@@H](COc1cccc2ncccc12)CN1CCN([C@@H]2c3ccccc3[C@@H]3[C@H](c4ccccc42)C3(F)F)CC1 [Zosuquidar] + Nc1nc2[nH]cc(CCc3ccc(C(=O)N[C@@H](CCC(=O)O)C(=O)O)cc3)c2c(=O)[nH]1 [Pemetrexed] (partner 0.2 µM)
Outline: as §1

Cell Line | relative viability ([1]; first compound 0.02 µM) | relative viability ([1]; first compound 0.06325 µM) | relative viability ([1]; first compound 0.2 µM) | relative viability ([1]; first compound 0.6325 µM) | relative viability ([1]; first compound 2 µM) | relative viability (Zosuquidar + OSI-027; first compound 0.01 µM) | relative viability (Zosuquidar + OSI-027; first compound 0.03162 µM) | relative viability (Zosuquidar + OSI-027; first compound 0.1 µM) | relative viability (Zosuquidar + OSI-027; first compound 0.3162 µM) | relative viability (Zosuquidar + OSI-027; first compound 1 µM) | relative viability (Zosuquidar + Luminespib; first compound 0.01 µM) | relative viability (Zosuquidar + Luminespib; first compound 0.03162 µM) | relative viability (Zosuquidar + Luminespib; first compound 0.1 µM) | relative viability (Zosuquidar + Luminespib; first compound 0.3162 µM) | relative viability (Zosuquidar + Luminespib; first compound 1 µM) | relative viability (Zosuquidar + Pemetrexed; first compound 0.01 µM) | relative viability (Zosuquidar + Pemetrexed; first compound 0.03162 µM) | relative viability (Zosuquidar + Pemetrexed; first compound 0.1 µM) | relative viability (Zosuquidar + Pemetrexed; first compound 0.3162 µM) | relative viability (Zosuquidar + Pemetrexed; first compound 1 µM)
LU99A | 0.547 | 0.513 | 0.516 | 0.452 | 0.435 | 0.279 | 0.276 | 0.253 | 0.322 | 0.288 | 0.201 | 0.22 | 0.256 | 0.276 | 0.303 | 0.168 | 0.175 | 0.155 | 0.165 | 0.171
LXF-289 | 1.02 | 0.966 | 0.971 | 0.983 | 0.94 | 0.744 | 0.862 | 0.741 | 0.856 | 0.915 | 0.665 | 0.762 | 0.675 | 0.711 | 0.581 | 0.892 | 0.905 | 0.908 | 0.895 | 0.908
NCI-H23 |  | 0.687 | 0.561 | 0.473 | 0.48 | 0.644 | 0.636 | 0.525 | 0.705 | 0.641 | 0.206 | 0.223 | 0.223 | 0.222 | 0.266 | 0.601 |  | 0.612 | 0.843 | 0.657
NCI-H322M | 0.95 | 1 |  | 0.96 | 0.954 | 0.529 | 0.67 | 0.485 | 0.66 | 0.575 | 0.754 | 0.886 | 0.664 | 0.862 | 0.727 | 0.623 | 0.537 | 0.548 | 0.582 | 0.575
NCI-H358 | 0.833 | 0.868 | 0.851 | 0.735 | 0.736 | 0.779 | 0.769 | 0.618 | 0.736 | 0.734 | 0.334 | 0.356 | 0.441 | 0.347 | 0.413 | 0.189 | 0.173 | 0.173 | 0.167 | 0.154
NCI-H441 | 0.53 | 0.721 | 0.686 | 0.46 | 0.418 | 0.667 | 0.666 | 0.519 | 0.828 | 0.585 | 0.355 | 0.244 | 0.403 | 0.286 | 0.326 | 0.29 | 0.286 | 0.249 | 0.23 | 0.268
NCI-H460 | 0.941 | 0.89 | 0.83 | 0.805 | 0.797 | 0.674 | 0.725 | 0.522 | 0.788 | 0.694 | 0.0346 | 0.0269 | 0.0352 | 0.0358 | 0.0277 | 0.0576 | 0.0545 | 0.0685 | 0.0617 | 0.0615
NCI-H520 | 0.923 | 1.05 | 0.938 | 0.796 | 0.815 | 0.266 | 0.294 |  | 0.237 | 0.236 | 0.226 | 0.192 |  | 0.193 | 0.206 | 0.742 | 0.723 | 0.788 | 0.85 | 0.899

Reference: the supplement of paper PMC10307832
